The source made the active and inactive calls.
What was measured:
Protein RecA = molecular target: T1, Protein RecA (Mycobacterium tuberculosis, UniProt P9WHJ3); experiment: Fluorescence Cell-Free Homogeneous Dose Retest to Identify Inhibitors of RecA-Intein Splicing Activity. [Related pubchem assays (depositor defined):AID2097, AID2223, AID489010, AID492950]; assay type: functional
T1 sequence (P9WHJ3 whole entry): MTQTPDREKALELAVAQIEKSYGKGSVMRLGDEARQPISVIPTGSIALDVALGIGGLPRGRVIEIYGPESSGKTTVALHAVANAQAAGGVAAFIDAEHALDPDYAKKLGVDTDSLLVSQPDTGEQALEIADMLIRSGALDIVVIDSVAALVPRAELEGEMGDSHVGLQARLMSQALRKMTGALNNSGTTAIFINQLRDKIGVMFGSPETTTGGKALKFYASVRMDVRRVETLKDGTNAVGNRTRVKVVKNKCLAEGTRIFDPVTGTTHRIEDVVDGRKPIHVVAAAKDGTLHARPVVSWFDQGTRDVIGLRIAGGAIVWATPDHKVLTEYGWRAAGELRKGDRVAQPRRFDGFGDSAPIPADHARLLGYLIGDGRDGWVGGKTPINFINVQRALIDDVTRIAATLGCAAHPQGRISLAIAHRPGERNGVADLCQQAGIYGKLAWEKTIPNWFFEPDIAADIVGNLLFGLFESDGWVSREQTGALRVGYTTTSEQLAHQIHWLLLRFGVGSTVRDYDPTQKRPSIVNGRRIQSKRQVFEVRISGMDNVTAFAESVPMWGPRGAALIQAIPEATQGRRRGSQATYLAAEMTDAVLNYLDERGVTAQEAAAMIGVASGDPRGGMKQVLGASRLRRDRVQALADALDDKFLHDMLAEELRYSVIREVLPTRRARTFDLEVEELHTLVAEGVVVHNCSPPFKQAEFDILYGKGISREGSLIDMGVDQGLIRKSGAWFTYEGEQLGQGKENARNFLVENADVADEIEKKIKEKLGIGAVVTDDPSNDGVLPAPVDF

[1] = molecular target: T2, Replicative DNA helicase DnaB (Mycobacterium tuberculosis, UniProt P9WMR3); experiment: DnaB intein splicing inhibitors, dose response, biochemical, cell-free fluorescence (AID 449749); assay type: functional
T2 sequence (P9WMR3 whole entry): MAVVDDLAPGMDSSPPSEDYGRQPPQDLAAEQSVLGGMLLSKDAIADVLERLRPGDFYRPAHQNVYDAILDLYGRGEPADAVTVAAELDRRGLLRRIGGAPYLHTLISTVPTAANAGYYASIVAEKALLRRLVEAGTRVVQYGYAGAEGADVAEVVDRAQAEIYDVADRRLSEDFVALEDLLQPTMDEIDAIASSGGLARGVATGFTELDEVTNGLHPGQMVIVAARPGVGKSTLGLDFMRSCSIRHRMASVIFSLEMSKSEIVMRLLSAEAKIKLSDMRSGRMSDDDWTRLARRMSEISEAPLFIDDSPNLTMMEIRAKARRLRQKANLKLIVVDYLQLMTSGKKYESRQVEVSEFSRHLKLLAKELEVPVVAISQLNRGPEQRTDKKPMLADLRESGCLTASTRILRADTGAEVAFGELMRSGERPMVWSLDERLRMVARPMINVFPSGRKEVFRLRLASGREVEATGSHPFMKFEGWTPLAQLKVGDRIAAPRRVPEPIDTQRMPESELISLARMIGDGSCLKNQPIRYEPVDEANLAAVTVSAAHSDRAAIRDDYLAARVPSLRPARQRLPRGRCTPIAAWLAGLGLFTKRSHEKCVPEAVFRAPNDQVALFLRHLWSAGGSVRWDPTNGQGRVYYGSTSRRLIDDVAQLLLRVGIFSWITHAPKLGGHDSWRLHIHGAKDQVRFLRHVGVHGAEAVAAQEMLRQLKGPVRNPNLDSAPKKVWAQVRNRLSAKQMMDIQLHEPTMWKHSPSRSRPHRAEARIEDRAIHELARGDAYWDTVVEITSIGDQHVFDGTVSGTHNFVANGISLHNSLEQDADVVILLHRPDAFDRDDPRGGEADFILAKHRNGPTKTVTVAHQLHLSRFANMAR

Streptococcus = experiment: Group A Streptococcus viability loss, dose response, counter-screen for streptokinase expression inhibitor project, luminescence, BacTiterGlo (AID 1915); assay type: functional, organism-based;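 further: potency for reduction of bacterial viability or growth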
Streptokinase A = molecular target: T3, Streptokinase A (Streptococcus pyogenes serotype M1, UniProt P10520); experiment: S. pyogenes streptokinase expression inhibitors, potency, dose response, plasminogen activation absorbance, OD405 (AID 1914); assay type: functional, Streptococcus pyogenes M1 GAS;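 further: secreted streptokinase activity via plasminogen activation per viability signal from cell pellet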
T3 sequence (P10520 whole entry): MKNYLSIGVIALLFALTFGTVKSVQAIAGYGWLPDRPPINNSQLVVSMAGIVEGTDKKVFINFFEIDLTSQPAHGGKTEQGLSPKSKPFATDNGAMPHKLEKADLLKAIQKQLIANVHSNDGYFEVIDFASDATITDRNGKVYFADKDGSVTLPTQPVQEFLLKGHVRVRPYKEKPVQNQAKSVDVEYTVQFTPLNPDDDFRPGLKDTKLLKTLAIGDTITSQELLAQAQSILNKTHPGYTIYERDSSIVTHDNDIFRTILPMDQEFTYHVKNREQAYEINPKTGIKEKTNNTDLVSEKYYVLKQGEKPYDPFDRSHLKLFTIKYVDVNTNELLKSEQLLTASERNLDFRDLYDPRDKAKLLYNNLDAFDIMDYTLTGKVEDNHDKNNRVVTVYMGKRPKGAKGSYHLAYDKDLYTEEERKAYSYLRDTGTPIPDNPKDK

[2] = system: Streptococcus sp. 'group A'; experiment: growth inhibition of control SK(-) GAS strain, dose response, counter-screen for streptokinase expression inhibitor project, luminescence, kanamycin, BacTiterGlo, confirmation (AID 1900); assay type: functional, organism-based
[3] = inhibitors of intracellular T. cruzi replication, confirmation, NIH3T3 host cells, beta-gal luminescence (AID 2044); assay type: functional, cell-based;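 further: intracellular parasites grown in NIH/3T3 mouse fibroblasts as host cells; luminescent beta-galactosidase reporter signal from transgenic T. cruzi replicating inside host cells; inhibitors lower the luminescence signal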
[4] = cytotoxicity toward NIH3T3 fibroblasts, dose response, counter-screen, cell-based, ATP luminescence, mouse fibroblasts (AID 2010); assay type: functional;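 further: cells exposed to compound for about 90 hours before reading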
Cytochrome P450 2C19 = Cytochrome P450 2C19 (Homo sapiens, UniProt P33261); experiment: Cytochrome panel assay with activity outcomes. Panel member name: p450-cyp2c19 Compounds with AC50 equal or less than 10 uM are considered active; assay type: functional
Sequence of Cytochrome P450 2C19 (P33261 whole entry): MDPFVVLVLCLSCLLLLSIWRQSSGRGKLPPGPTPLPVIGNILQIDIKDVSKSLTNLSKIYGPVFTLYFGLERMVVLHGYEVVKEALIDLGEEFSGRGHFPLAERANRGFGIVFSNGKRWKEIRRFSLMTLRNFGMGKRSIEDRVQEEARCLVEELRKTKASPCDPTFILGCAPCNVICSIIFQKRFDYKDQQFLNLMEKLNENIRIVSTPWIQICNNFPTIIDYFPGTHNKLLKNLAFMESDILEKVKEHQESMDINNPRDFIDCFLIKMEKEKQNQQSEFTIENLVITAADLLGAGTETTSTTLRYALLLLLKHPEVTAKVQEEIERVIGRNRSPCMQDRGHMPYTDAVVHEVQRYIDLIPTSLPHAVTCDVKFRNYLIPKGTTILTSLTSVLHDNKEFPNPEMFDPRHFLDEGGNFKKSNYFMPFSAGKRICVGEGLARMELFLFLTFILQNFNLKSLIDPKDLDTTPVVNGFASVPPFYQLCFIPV

## COc1ccc(C(=O)/C(=C/c2cccs2)c2nc3ccccc3o2)cc1
Protein RecA
  EC50: > 380 µM (inactive)
[1]
  AC50: > 380 µM (inactive)

## COc1ccccc1Oc1cc(C#N)c(C#N)cc1-n1nnc2ccccc21
Protein RecA
  EC50: 3.77 µM (active)
[1]
  AC50: 20.2 µM (active)

## CC(=O)Oc1ccc2c(=O)oc(-c3ccccc3C)nc2c1
Protein RecA
  EC50: 37.8 µM (active)
[1]
  AC50: > 380 µM (inactive)

## Cc1ccc(C(=O)Nc2nnc(S(=O)(=O)N3CCN(c4ccc(F)cc4)CC3)s2)cc1
Streptococcus
  EC50: 109 µM (active)
Streptokinase A
  EC50: > 150 µM (not active)

## O=C(COc1cccc(Cl)c1)Nc1ccccc1N1CCCCC1
Streptococcus
  EC50: > 150 µM (not active)
Streptokinase A
  EC50: 11.1 µM (active)
[2]
  EC50: 21.1 µM (active)

## Cc1nc2c(C)cccn2c(=O)c1NC(=O)c1ccc2c(c1)OCO2
Streptococcus
  EC50: > 150 µM (not active)
Streptokinase A
  EC50: > 150 µM (not active)
[2]
  EC50: > 150 µM (not active)

## Cc1ccsc1C(=O)N(c1nc2ccccc2s1)c1c(C)cccc1C
Streptococcus
  EC50: > 150 µM (not active)
Streptokinase A
  EC50: 7.09 µM (inconclusive)
[2]
  EC50: 16.7 µM (active)

## CC(C)(C)c1ccccc1OCCCCCn1ccnc1
[3]
  EC50: 1.32 µM (active)
Streptococcus
  EC50: > 150 µM (not active)
Streptokinase A
  EC50: > 150 µM (not active)
[2]
  EC50: 19.1 µM (active)
[4]
  EC50: > 60 µM (not active)

## CC(=O)NC1=NN(c2ccccc2)C(=O)C1
Protein RecA
  EC50: 5.21 µM (active)
Cytochrome P450 2C19
  AC50: inconclusive
[1]
  AC50: 33.5 µM (active)

## CCCc1[nH][nH]c(=O)c1C(c1ccccc1)C(C#N)C#N (configuration not stated)
Protein RecA
  EC50: 4.19 µM (active)
[1]
  AC50: 8.91 µM (active)

## Cc1ccc(CNC(=O)c2ccc(N(C)S(=O)(=O)c3ccccc3)cc2)cc1
Protein RecA
  EC50: > 380 µM (inactive)
[1]
  AC50: 53.4 µM (active)

## FC(F)(F)c1cccc(Nc2nc(N3CCCC3)nc(N3CCCC3)n2)c1
Streptococcus
  EC50: 9.85 µM (active)
Streptokinase A
  EC50: 17.5 µM (inconclusive)
[2]
  EC50: 4.06 µM (active)

## O=C(Oc1ccc2ccccc2c1)c1ccco1
Protein RecA
  EC50: 13.9 µM (active)
[1]
  AC50: 18.3 µM (active)

## CCOc1ccc2c(c1)c1nnc(SCC(=O)N3CCC(C)CC3)nc1n2C
Streptococcus
  EC50: > 150 µM (not active)
Streptokinase A
  EC50: > 150 µM (not active)
[2]
  EC50: 24.2 µM (active)

## Cc1ccc2c(c1)C(=O)CC1(CCC(C(C)(C)C)CC1)O2 (configuration not stated)
Streptococcus
  EC50: 14.2 µM (active)
Streptokinase A
  EC50: 12.6 µM (active)
[2]
  EC50: 9.31 µM (active)

## O=C(NC(=S)Nc1ccc(Cl)c(C(=O)O)c1)c1cccc(COc2ccccc2)c1
Streptococcus
  EC50: > 150 µM (not active)
Streptokinase A
  EC50: > 150 µM (not active)
[2]
  EC50: 13 µM (active)

## Cc1cc(C)cc(S(=O)(=O)c2cnc3ccccc3n2)c1
Protein RecA
  EC50: 4.26 µM (active)
[1]
  AC50: 20.2 µM (active)

## CCCCCCCCCCC(=O)NNC(=O)c1c(O)c2ccccc2n(CC)c1=O
Streptococcus
  EC50: 4.38 µM (active)
Streptokinase A
  EC50: > 150 µM (not active)
[2]
  EC50: 0.337 µM (active)

## O=C(CSC(=S)N1CCCCC1)Nc1nc(-c2ccccc2)c(-c2ccccc2)o1
Streptococcus
  EC50: > 150 µM (not active)
Streptokinase A
  EC50: > 150 µM (not active)
[2]
  EC50: 1.51 µM (active)

## CCOCC(=O)NCc1ccc2c(c1)cc(C)n2C
Protein RecA
  EC50: 23.6 µM (active)
[1]
  AC50: > 380 µM (inactive)

## COC(=O)CN1C(=O)C2(C(C#N)=C(N)Oc3c2c(C)nn3-c2ccccc2)c2ccccc21 (configuration not stated)
Protein RecA
  EC50: 3.38 µM (active)
[1]
  AC50: 7.38 µM (active)

## CCOC(=O)c1cnc(-n2nc(C)cc2C)nc1N(CC)CC
Streptococcus
  EC50: > 150 µM (not active)
Streptokinase A
  EC50: > 150 µM (not active)
[2]
  EC50: 25.3 µM (active)

## COc1ccc(-c2coc3c(C)c4oc(=O)c(CCC(=O)O)c(C)c4cc23)cc1
Streptococcus
  EC50: 15.4 µM (active)
Streptokinase A
  EC50: > 150 µM (not active)
[2]
  EC50: 3.74 µM (active)

## CC1=NNC(=O)C1C(c1ccccc1)C1C(=O)NN=C1C (configuration not stated)
Protein RecA
  EC50: 0.194 µM (active)
[1]
  AC50: 0.383 µM (active)

## CCCn1c(NC(=O)C23CC4CC(CC(O)(C4)C2)C3)nc2ccccc21
Streptococcus
  EC50: > 150 µM (not active)
Streptokinase A
  EC50: > 150 µM (not active)

## CC(=O)N(c1ccccc1)C(C)c1nc(C#N)c(C#N)nc1C (configuration not stated)
Protein RecA
  EC50: 4.35 µM (active)
[1]
  AC50: 24.5 µM (active)

## COc1ccc(N2CCN(C(=O)c3ccc(Oc4ccc(C(F)(F)F)cn4)cc3)CC2)cc1
Protein RecA
  EC50: > 380 µM (inactive)
[1]
  AC50: 121 µM (active)

## COC(=O)Cc1n[nH]c2c1C1(CCSCC1)C(C#N)=C(N)O2
Protein RecA
  EC50: 1.99 µM (active)
[1]
  AC50: 10.8 µM (active)

## Oc1cccc(/C=N/c2cccc3ccccc23)c1O
Protein RecA
  EC50: 10.1 µM (active)
[1]
  AC50: 3.04 µM (active)

## COC(=O)Cc1cc(=O)n(-c2ccccc2)[nH]1
Protein RecA
  EC50: 14 µM (active)
[1]
  AC50: 17.6 µM (active)

## C/C(=N\NC(=O)Cc1cc(O)[nH]n1)c1cccc([N+](=O)[O-])c1
Protein RecA
  EC50: 1.31 µM (active)
[1]
  AC50: 2.73 µM (active)

## CO/C(O)=C1/C(C)=NC(=S)NC1c1ccc(OC(=O)c2ccco2)cc1 (configuration not stated)
Protein RecA
  EC50: 14.4 µM (active)
[1]
  AC50: 33.1 µM (active)

## CC(=O)Oc1ccc(/C=N/NS(=O)(=O)c2ccccc2)cc1
Streptococcus
  EC50: > 150 µM (not active)
Streptokinase A
  EC50: > 150 µM (not active)
[2]
  EC50: > 150 µM (not active)

## Cc1cc(Br)c(OCc2ccc(C(=O)N/N=C3\CC4CC=CC34)cc2)c(Br)c1 (configuration not stated)
Streptococcus
  EC50: 44.5 µM (active)
Streptokinase A
  EC50: > 150 µM (not active)
[2]
  EC50: 4.08 µM (active)

## CC(=N)/C(C#N)=C(/O)CSc1nc2cc(Cl)ccc2c(=O)n1Cc1ccco1
[3]
  EC50: 3.43 µM (active)
Streptococcus
  EC50: 16.2 µM (active)
Streptokinase A
  EC50: > 150 µM (not active)
[2]
  EC50: 11.8 µM (active)
[4]
  EC50: > 60 µM (inconclusive)

## C/C(=N\NC(=O)c1ccc(Cl)c(Cl)c1)c1ccc(Br)s1
[3]
  EC50: 0.597 µM (active)
Streptococcus
  EC50: 14.7 µM (active)
Streptokinase A
  EC50: > 150 µM (not active)
[2]
  EC50: 2.12 µM (active)
[4]
  EC50: 8.11 µM (active)

## COc1ccc(/C(=N/OC(C)=O)c2nccc3cc(OC)c(OC)cc23)cc1OC
Protein RecA
  EC50: 36.3 µM (active)
[1]
  AC50: > 380 µM (inactive)

From ChEMBL document CHEMBL1201862, “PubChem BioAssay data set” (2004)
